# Assay results taken from patent US5919761A, “Peptides for heparin and low molecular weight heparin anticoagulation reversal” (The Board of Regents of the University of Michigan, priority 1995, dated 1999).
# Where “and” joins values, the source holds several entries; their conditions need not be identical. Equal entries are not always repeated. Peptide text beside a SMILES is read from it.
# What was measured:
# [1] = system: standard heparin; experiment: Percent reversal of standard heparin anticoagulation by peptide [+18BE] administered at different rates, dogs; type: in vivo
# [2] = Maximum hemodynamic changes and total toxicity score after standard heparin reversal, cell adhesion ligand analogs, canine study; conditions: dogs, agent over 10 seconds
# Experimental: In these studies, the anticoagulation-reversing agents were administered over a 10 second interval to maximize the hemodynamic effects.
# Hemodynamic studies were conducted by measuring mean blood pressure (Mean BP) in mm Mercury, maximum percent changes in cardiac output (CO) and systemic oxygen consumption (VO2), and heart rate (HR) in beats per minute. Measurements and calculations were made at baseline, before administration of standard, unfractionated heparin, 3 minutes before reversal, every 30 seconds for 5 minutes after reversal.
# Total toxicity scores (TTS) were developed in accordance with the method described hereinabove that reflected maximum declines in each of four parameters (MAP, CO, VO2 and HR) over the first 5 minutes after reversal.
# [3] = Maximum hemodynamic changes and total toxicity score after Enoxaparin reversal, canine study; conditions: dogs, agent over 10 seconds
# Experimental: (§2) Seven female dogs (mean weight 15-20 kg) received intravenous standard, unfractionated heparin (150 IU/kg IV) or LMWH (Enoxaparin, Rhone-Poulac, France; 100 IU/kg factor Xa activity) followed by reversal with commercial salmine protamine (n-protamine purchased from Eli Lilly, Indianapolis, Ind., 1.5 mg/kg (100 IU/mg) IV) or an anticoagulation-reversing agent which is a protamine-like peptide variant identified hereinbelow. In these studies, the anticoagulation-reversing agents were administered over a 10 second interval to maximize the hemodynamic effects.
# [4] = Percent change in platelet count after standard heparin reversal, cell adhesion ligand analogs, canine study; type: in vivo; conditions: dogs, agent over 10 seconds
# Experimental: In addition to hemodynamic changes, Table 15 lists the percent change in platelet count following administration of n-protamine and the selected variants, as well as the factor Xa and factor IIa reversal, as a percent change at 3 minutes post administration of the compound.
# [5] = system: LMWH (LHN-1, Logiparin); experiment: Percent reversal of LMWH anticoagulation, agents administered at different rates, canine study; type: in vivo, dogs
# Experimental: (§1) Anticoagulation reversal was assessed by a number of standard coagulation tests performed upon samples of venous blood in the manner described hereinabove. Measurements were made 3 minutes prior to heparin reversal (baseline) and 3 minutes, 10 minutes, and 30 minutes post-administration of the heparin reversal agent.
# [6] = system: LMWH (Enoxaparin); experiment: Factor Xa and IIa reversal after LMWH Enoxaparin, canine study; type: in vivo; conditions: dogs, 3 min
# Experimental: Similar studies were conducted to assess the ability of the protamine-like peptide analogs described in this section to reverse the anticoagulation effects of the LMWH, Enoxaparin. FIG. 5a through FIG. 5d are graphical representations of LMWH anticoagulation activities achieved by n-protamine (Protamine [+21]), and compounds [+18BE], [+18KDEL], and [+18RGD] plotted as a percent of reversal against time in minutes. […] Referring to FIG. 5c, compound [+18RGD] dramatically outperforms n-protamine in reversing the heparin antifactor Xa activity of Enoxaparin.
# [7] = Hemodynamic studies and total toxicity score after LMWH reversal at different rates, canine study; conditions: dogs, Logiparin
# Experimental: (§3) The anticoagulation-reversing agents were administered rapidly over 10 seconds to maximize hemodynamic effects or more slowly over a 3 minute interval. Changes in LMWH anticoagulation occurring from metabolism alone were determined in a separate group of dogs not given any reversal agent.
# Hemodynamic studies were conducted by measuring mean arterial pressure (MAP) in mm Mercury, maximum percent changes in cardiac output (CO) and systemic oxygen consumption (VO2), and heart rate (HR) in beats per minute. Measurements and calculations were made at baseline, before LMWH administration, 3 minutes before reversal, every 30 seconds for 5 minutes after reversal, and at 10, 20, and 30 minutes after reversal.
# (§4) TTS were developed that reflected maximum declines in each of four parameters (MAP, CO, VO2 and HR) over the first 5 minutes after reversal in the same manner as described hereinabove.
# [8] = Percent change in platelet count after Enoxaparin reversal, canine study; type: in vivo; conditions: dogs, agent over 10 seconds
# Experimental: as §2
# [9] = Platelet count, leukocyte count and bleeding time after LMWH reversal at different rates, canine study; type: in vivo, dogs
# Experimental: as §3
# [10] = system: standard, unfractionated heparin; experiment: Factor Xa and IIa reversal after standard heparin, cell adhesion ligand analogs, canine study; type: in vivo; conditions: dogs, 3 min post administration
# Experimental: as §1, with “agent. […] Referring to FIGS. 4a through 4d, compound [+18RGD] performs as well, or better, than n-protamine in the standard coagulation tests performed in these studies.” for “agent.”
# [11] = Hemodynamic studies and total toxicity score after standard heparin reversal at different rates, dogs
# Experimental: Hemodynamic studies were conducted by measuring mean arterial pressure (MAP) in mm Mercury, maximum percent changes in cardiac output (CO) and systemic oxygen consumption (VO2), and heart rate (HR) in beats per minute. Measurements and calculations were made at baseline, before LMWH administration, 3 minutes before reversal, every 30 seconds for 5 minutes after reversal.
# as §4
# [12] = administered over 10 sec, 3 min
# [13] = administered over 10 sec, 10 min
# [14] = administered over 10 sec, 30 min
# [15] = administered over 3 min, 10 min
# [16] = administered over 3 min, 30 min
# [17] = dogs, Logiparin, administered over 10 sec
# [18] = dogs, Logiparin, administered over 3 min
smiles,measurement,setting,value
"CC(=O)N[C@@H](CCC(=O)O)C(=O)N[C@@H](C)C(=O)N[C@@H](C)C(=O)N[C@@H](CCCCN)C(=O)N[C@@H](CCCCN)C(=O)N[C@@H](C)C(=O)N[C@@H](C)C(=O)N[C@@H](CCCCN)C(=O)N[C@@H](CCCCN)C(=O)N[C@@H](C)C(=O)N[C@@H](CCCCN)C(=O)N[C@@H](CCCCN)C(=O)N[C@@H](C)C(=O)N[C@@H](C)C(=O)N[C@@H](CCCCN)C(=O)N[C@@H](CCCCN)C(=O)N[C@@H](C)C(=O)N[C@@H](CCCCN)C(=O)N[C@@H](CCCCN)C(=O)N[C@@H](C)C(=O)N[C@@H](C)C(=O)N[C@@H](CCCCN)C(=O)N[C@@H](CCCCN)C(=O)N[C@@H](C)C(=O)N[C@@H](CCCCN)C(=O)N[C@@H](CCCCN)C(=O)N[C@@H](C)C(=O)N[C@@H](C)C(=O)N[C@@H](CCCCN)C(=O)N[C@@H](CCCCN)C(=O)N[C@@H](C)C(=O)N[C@@H](CCCCN)C(=O)N[C@@H](CCCCN)C(N)=O [[+18BE], acetyl-EA2 (K2 A2 K2 A)4 K2 amide] (Ac-EAAKKAAKKAKKAAKKAKKAAKKAKKAAKKAKK-NH2)","Percent reversal of standard heparin anticoagulation, FNa",[1]; [12],100%
same,"Percent reversal of standard heparin anticoagulation, FXa",[1]; [12],99%
same,"Percent reversal of standard heparin anticoagulation, TCT",[1]; [12],100%
same,"Percent reversal of standard heparin anticoagulation, ACT",[1]; [13],98%
same,"Percent reversal of standard heparin anticoagulation, FNa",[1]; [13],99%
same,"Percent reversal of standard heparin anticoagulation, FXa",[1]; [13],95%
same,"Percent reversal of standard heparin anticoagulation, TCT",[1]; [13],98%
same,"Percent reversal of standard heparin anticoagulation, ACT",[1]; [14],96%
same,"Percent reversal of standard heparin anticoagulation, FNa",[1]; [14],100%
same,"Percent reversal of standard heparin anticoagulation, FXa",[1]; [14],97%
same,"Percent reversal of standard heparin anticoagulation, TCT",[1]; [14],98%
same,"Percent reversal of standard heparin anticoagulation, FNa","[1]; administered over 3 min, 3 min",99%
same,"Percent reversal of standard heparin anticoagulation, FXa","[1]; administered over 3 min, 3 min",99%
same,"Percent reversal of standard heparin anticoagulation, TCT","[1]; administered over 3 min, 3 min",100%
same,"Percent reversal of standard heparin anticoagulation, ACT",[1]; [15],98%
same,"Percent reversal of standard heparin anticoagulation, FNa",[1]; [15],98%
same,"Percent reversal of standard heparin anticoagulation, FXa",[1]; [15],97%
same,"Percent reversal of standard heparin anticoagulation, TCT",[1]; [15],100%
same,"Percent reversal of standard heparin anticoagulation, ACT",[1]; [16],98%
same,"Percent reversal of standard heparin anticoagulation, FNa",[1]; [16],99%
same,"Percent reversal of standard heparin anticoagulation, FXa",[1]; [16],96%
same,"Percent reversal of standard heparin anticoagulation, TCT",[1]; [16],100%
same,"Percent reversal of standard heparin anticoagulation, ACT","[1]; dogs (n=7), administered over 10 sec, 3 min post-administration",95%
same,"Percent reversal of standard heparin anticoagulation, ACT","[1]; dogs (n=7), administered over 3 min, 3 min post-administration",98%
same,"Maximum hemodynamic change, Mean BP","[2]; standard heparin 150 IU/kg IV, 5 minutes",-1 mm Mercury
same,"Maximum hemodynamic change, CO","[2]; standard heparin, 5 minutes",-9%
same,"Maximum hemodynamic change, HR","[2]; standard heparin, 5 minutes",-8 beats/min
same,"Maximum hemodynamic change, VO2","[2]; standard heparin, 5 minutes",-9%
same,Total Toxicity Score,[2]; standard unfractionated heparin,-2.41 ± 0.47
same,"Maximum hemodynamic change, Mean BP","[3]; Enoxaparin 100 IU/kg, 5 minutes",-1 mm Mercury
same,Total Toxicity Score (TTS),[3]; Enoxaparin,-3.89 and -3.89 ± 2.37
same,"Maximum hemodynamic change, CO","[3]; Enoxaparin, 5 minutes",-5%
same,"Maximum hemodynamic change, HR","[3]; Enoxaparin, 5 minutes",-4 beats/min
same,"Maximum hemodynamic change, VO2","[3]; Enoxaparin, 5 minutes",-6%
same,Platelet (percent change in platelet count),[4],-46%
same,"Percent reversal of LMWH anticoagulation, FNa",[5]; [12],99%
same,"Percent reversal of LMWH anticoagulation, FXa",[5]; [12],73%
same,"Percent reversal of LMWH anticoagulation, TCT",[5]; [12],100%
same,"Percent reversal of LMWH anticoagulation, ACT",[5]; [13],78%
same,"Percent reversal of LMWH anticoagulation, FNa",[5]; [13],83%
same,"Percent reversal of LMWH anticoagulation, FXa",[5]; [13],51%
same,"Percent reversal of LMWH anticoagulation, TCT",[5]; [13],95%
same,"Percent reversal of LMWH anticoagulation, ACT",[5]; [14],81%
same,"Percent reversal of LMWH anticoagulation, FNa",[5]; [14],79%
same,"Percent reversal of LMWH anticoagulation, FXa",[5]; [14],59%
same,"Percent reversal of LMWH anticoagulation, TCT",[5]; [14],95%
same,"Percent reversal of LMWH anticoagulation, FNa","[5]; administered over 3 min, 3 min",94%
same,"Percent reversal of LMWH anticoagulation, FXa","[5]; administered over 3 min, 3 min",91%
same,"Percent reversal of LMWH anticoagulation, TCT","[5]; administered over 3 min, 3 min",100%
same,"Percent reversal of LMWH anticoagulation, ACT",[5]; [15],95%
same,"Percent reversal of LMWH anticoagulation, FNa",[5]; [15],99%
same,"Percent reversal of LMWH anticoagulation, FXa",[5]; [15],68%
same,"Percent reversal of LMWH anticoagulation, TCT",[5]; [15],100%
same,"Percent reversal of LMWH anticoagulation, ACT",[5]; [16],97%
same,"Percent reversal of LMWH anticoagulation, FNa",[5]; [16],84%
same,"Percent reversal of LMWH anticoagulation, FXa",[5]; [16],60%
same,"Percent reversal of LMWH anticoagulation, TCT",[5]; [16],99%
same,"Percent reversal of LMWH anticoagulation, ACT","[5]; dogs, Logiparin, agent administered over 10 sec, 3 min post-administration",65%
same,"Percent reversal of LMWH anticoagulation, ACT","[5]; dogs, Logiparin, agent administered over 3 min, 3 min post-administration",89%
same,IIa Reversal,[6],88%
same,Xa Reversal,[6],40%
same,Total Toxicity Score,[7]; administered over 10 sec,-2.3 ± 3.6
same,ΔCO,[7]; administered over 10 sec,-11%
same,ΔHr,[7]; administered over 10 sec,-13 beats per minute
same,ΔMAP,[7]; administered over 10 sec,-8 mm Mercury
same,ΔVO2,[7]; administered over 10 sec,-12%
same,Total Toxicity Score,[7]; administered over 3 min,-2.2 ± 1.7
same,ΔCO,[7]; administered over 3 min,-7%
same,ΔHr,[7]; administered over 3 min,-5 beats per minute
same,ΔMAP,[7]; administered over 3 min,0 mm Mercury
same,ΔVO2,[7]; administered over 3 min,-10%
same,Platelet (percent change in platelet count),[8],-35%
same,Maximal decline in leukocyte count,[9]; [17],-1%
same,Maximal thrombocytopenia,[9]; [17],-44%
same,Maximal decline in leukocyte count,[9]; [18],-7%
same,Maximal thrombocytopenia,[9]; [18],-49%
same,thrombocytopenia (platelet count change),"[9]; dogs, Logiparin, by 10 minutes, administered over a 3 minute interval",-8%
same,platelet count rebound,"[9]; dogs, Logiparin, by 30 minutes, administered over a 3 minute interval",+35%
same,bleeding time,"[9]; selected animals, given over a 3 minute interval",≤ 8 min
same,IIa Reversal,[10],100%
same,Xa Reversal,[10],99%
same,Total Toxicity Score,[11]; administered over 10 sec,-2.14 ± 0.40
same,ΔCO,[11]; administered over 10 sec,-9%
same,ΔHR,[11]; administered over 10 sec,-8 beats per minute
same,ΔMAP,[11]; administered over 10 sec,-1 mm Mercury
same,ΔVO2,[11]; administered over 10 sec,-9%
same,Total Toxicity Score,[11]; administered over 3 min,-1.96 ± 0.55
same,ΔCO,[11]; administered over 3 min,-17%
same,ΔHR,[11]; administered over 3 min,-8 beats per minute
same,ΔMAP,[11]; administered over 3 min,1 mm Mercury
same,ΔVO2,[11]; administered over 3 min,-10%
